Test system: KedF
Experiment: continuous spectrophotometric assay with periodate, […] nm
Assay type: biochemical, Streptoalloteichus sp. ATCC 53650
Details: 50 mM phosphate pH 8.0, 25 °C, 3 mM sodium periodate

Structure (SMILES) | Km (9.6 μM KedF) | Km (4.0 μM KedF)
c1ccc([C@@H]2CO2)cc1 [(R)-styrene oxide] | 3500 ± 640 µM | 
c1ccc([C@H]2CO2)cc1 [(S)-styrene oxide] |  | 910 ± 100 µM
